Reference: ChEMBL document CHEMBL5385848, “Discovery of novel hydroxyamidine based indoleamine 2,3-dioxygenase 1 (IDO1) and thioredoxin reductase 1 (TrxR1) dual inhibitors” (Eur J Med Chem, 2023)
The source made the active and inactive calls.

How the values were obtained:
CT26 [1] = assay: Antitumor activity against mouse CT26 cells implanted in athymic nude BALB/c mouse assessed as reduction in proliferative nTreg lymphocytes at 15 to 60 mg/kg, ig administered daily for 28 days and measured every 4 days by immunofluorescence analysis; format: functional, organism-based; details: dose 15-60 mg/kg, time 28.0 day
CT26 [2] = assay: Antitumor activity against mouse CT26 cells implanted in […] BALB/c mouse assessed as increase in CD8 T lymphocytes at 15 to 60 mg/kg, ig administered daily for 28 days and measured every 4 days; format: functional, organism-based; details: dose 15-60 mg/kg, time 28.0 day
CT26 [3] = assay: Antitumor activity against ig dosed mouse CT26 cells implanted in […] BALB/c mouse assessed as reduction in tumor volume administered daily for 28 days and measured every 4 days; format: functional, organism-based; details: dose 15-60 mg/kg, time 28.0 day
[4] = Cytotoxicity against human HCT-116 cells incubated for 48 hrs by CCK-8 assay; format: toxicity, cell-based
CT26 [5] = assay: Antitumor activity against mouse CT26 cells implanted in […] BALB/c mouse assessed as increase in CD4 Th lymphocytes at 15 to 60 mg/kg, ig administered daily for 28 days and measured every 4 days; format: functional, organism-based; details: dose 15-60 mg/kg, time 28.0 day
[6] = molecular target: Indoleamine 2,3-dioxygenase 1 (Mus musculus) (UniProt P28776); assay: In vivo inhibition of IDO1 in BALB/c mouse implanted with mouse CT-26 cells assessed as reduction in plasma Kyn level at 60 mg/kg, po administered once daily by LC-MS/MS analysis; format: functional, organism-based
Sequence of Indoleamine 2,3-dioxygenase 1 (Mus musculus) (P28776 whole entry, looked up): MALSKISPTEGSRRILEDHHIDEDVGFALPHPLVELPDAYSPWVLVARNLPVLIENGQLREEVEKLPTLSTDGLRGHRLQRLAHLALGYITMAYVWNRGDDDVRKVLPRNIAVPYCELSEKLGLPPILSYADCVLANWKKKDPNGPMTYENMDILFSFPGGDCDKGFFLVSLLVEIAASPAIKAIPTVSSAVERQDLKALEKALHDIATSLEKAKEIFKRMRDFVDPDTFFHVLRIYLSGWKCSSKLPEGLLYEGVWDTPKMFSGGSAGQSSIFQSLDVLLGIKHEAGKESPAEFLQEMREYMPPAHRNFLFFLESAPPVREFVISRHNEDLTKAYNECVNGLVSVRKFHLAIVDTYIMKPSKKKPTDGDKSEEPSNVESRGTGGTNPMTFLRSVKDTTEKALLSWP

CT26 [7] = assay: Antitumor activity against ig dosed mouse CT26 cells implanted in […] BALB/c mouse assessed as reduction in tumor weight administered daily for 28 days and measured every 4 days; format: functional, organism-based; details: dose 15-60 mg/kg, time 28.0 day

O=C(Cc1ccc(O)cc1)Nc1nnc(CCCNc2nonc2/C(=N\O)Nc2ccc(F)c(Br)c2)s1
active: Activity (CT26 [1]) | Activity (CT26 [2]) | Activity (CT26 [3]) Dose-Dependent Effect | Activity (CT26 [5]) | Activity [6] | Activity (CT26 [7]) Dose-Dependent Effect
3.44 µM: IC50 at 48 h [4]
